Experiment [1] deals with T1, Corticotropin-releasing factor receptor 2/Corticotropin-releasing factor-binding protein (Homo sapiens, UniProt P24387+Q13324).
T1 sequence (Q13324 whole entry): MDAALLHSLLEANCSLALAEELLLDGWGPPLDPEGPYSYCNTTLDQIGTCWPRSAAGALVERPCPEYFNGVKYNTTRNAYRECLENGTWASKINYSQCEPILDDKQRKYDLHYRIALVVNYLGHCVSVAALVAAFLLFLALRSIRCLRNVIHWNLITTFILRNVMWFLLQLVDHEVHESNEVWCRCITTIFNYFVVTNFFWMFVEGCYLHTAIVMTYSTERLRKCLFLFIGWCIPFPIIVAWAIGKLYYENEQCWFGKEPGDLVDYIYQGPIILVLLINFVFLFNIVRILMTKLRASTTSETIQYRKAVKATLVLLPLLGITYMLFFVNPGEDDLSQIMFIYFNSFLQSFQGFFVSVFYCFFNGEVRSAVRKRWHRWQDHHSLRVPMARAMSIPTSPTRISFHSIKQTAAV
T1 sequence (P24387 whole entry): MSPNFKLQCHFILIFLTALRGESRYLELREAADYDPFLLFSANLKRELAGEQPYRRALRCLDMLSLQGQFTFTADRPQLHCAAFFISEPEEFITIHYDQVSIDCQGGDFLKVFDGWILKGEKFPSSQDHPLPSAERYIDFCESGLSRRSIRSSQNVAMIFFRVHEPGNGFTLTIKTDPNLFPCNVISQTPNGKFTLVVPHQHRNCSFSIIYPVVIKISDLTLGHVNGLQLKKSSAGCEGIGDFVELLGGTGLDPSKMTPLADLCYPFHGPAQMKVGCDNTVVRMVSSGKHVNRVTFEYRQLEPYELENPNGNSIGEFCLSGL
Nature of the experiment: Dose Response confirmation of uHTS hits for small molecule antagonists of the CRF-binding protein and CRF-R2 receptor complex. The format is functional. Conditions: read-out: IC50_Mean.

Experiment [2] addresses T1, Corticotropin-releasing factor receptor 2/Corticotropin-releasing factor-binding protein. The experiment in a line: activators of CRF receptor 2 with binding protein – uHTS hits, confirmation (AID 602473). The format is functional. The following applies: read-out: EC50_Mean.
Experiment [3] has as its target T2, Replicative DNA helicase DnaB (Mycobacterium tuberculosis, UniProt P9WMR3).
T2 sequence (P9WMR3 whole entry): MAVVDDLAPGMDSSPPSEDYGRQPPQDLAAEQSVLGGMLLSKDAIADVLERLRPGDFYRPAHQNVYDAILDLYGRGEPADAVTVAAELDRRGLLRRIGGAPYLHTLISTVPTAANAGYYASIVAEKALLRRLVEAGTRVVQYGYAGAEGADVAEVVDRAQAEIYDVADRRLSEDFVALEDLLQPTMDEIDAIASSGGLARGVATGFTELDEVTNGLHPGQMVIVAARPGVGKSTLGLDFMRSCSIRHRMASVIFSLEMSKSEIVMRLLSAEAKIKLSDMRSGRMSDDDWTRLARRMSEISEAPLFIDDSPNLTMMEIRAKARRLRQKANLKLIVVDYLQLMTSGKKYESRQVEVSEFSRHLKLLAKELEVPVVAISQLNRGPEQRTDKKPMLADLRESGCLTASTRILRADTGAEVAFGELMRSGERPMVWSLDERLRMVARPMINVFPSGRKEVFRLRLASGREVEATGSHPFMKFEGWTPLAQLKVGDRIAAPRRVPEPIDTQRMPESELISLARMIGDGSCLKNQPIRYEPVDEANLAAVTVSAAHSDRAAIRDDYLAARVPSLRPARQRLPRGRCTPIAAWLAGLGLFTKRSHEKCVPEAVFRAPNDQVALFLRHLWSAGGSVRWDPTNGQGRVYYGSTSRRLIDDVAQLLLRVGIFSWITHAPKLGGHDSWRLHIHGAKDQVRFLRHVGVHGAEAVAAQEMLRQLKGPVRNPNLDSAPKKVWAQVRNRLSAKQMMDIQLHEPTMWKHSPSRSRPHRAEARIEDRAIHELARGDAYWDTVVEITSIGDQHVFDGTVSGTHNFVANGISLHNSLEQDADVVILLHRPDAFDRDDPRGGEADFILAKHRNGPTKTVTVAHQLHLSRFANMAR
Nature of the experiment: DnaB intein splicing inhibitors, dose response, biochemical, cell-free fluorescence (AID 449749). The format is functional.

The target in experiment [4] is T3, Protein RecA (Mycobacterium tuberculosis, UniProt P9WHJ3).
T3 sequence (P9WHJ3 whole entry): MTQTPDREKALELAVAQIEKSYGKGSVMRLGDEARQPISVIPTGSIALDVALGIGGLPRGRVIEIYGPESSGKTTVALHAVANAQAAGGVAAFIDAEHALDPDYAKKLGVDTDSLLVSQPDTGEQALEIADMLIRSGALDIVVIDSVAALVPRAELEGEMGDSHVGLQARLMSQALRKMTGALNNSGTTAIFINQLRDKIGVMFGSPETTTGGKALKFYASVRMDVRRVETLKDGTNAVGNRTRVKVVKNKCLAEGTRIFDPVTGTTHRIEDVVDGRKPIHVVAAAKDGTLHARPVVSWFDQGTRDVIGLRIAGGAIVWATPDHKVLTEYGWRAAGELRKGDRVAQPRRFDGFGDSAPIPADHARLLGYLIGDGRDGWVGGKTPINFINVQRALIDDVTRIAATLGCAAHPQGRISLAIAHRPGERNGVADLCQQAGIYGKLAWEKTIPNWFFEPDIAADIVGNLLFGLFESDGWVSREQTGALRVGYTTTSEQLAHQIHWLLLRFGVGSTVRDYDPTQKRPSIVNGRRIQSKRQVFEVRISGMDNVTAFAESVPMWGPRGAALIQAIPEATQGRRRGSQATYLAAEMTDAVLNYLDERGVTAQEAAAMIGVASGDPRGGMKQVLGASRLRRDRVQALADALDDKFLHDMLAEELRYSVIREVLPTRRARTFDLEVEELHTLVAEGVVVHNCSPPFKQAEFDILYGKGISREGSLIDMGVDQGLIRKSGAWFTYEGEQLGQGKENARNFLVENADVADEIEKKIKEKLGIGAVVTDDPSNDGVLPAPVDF
Nature of the experiment: Fluorescence Cell-Free Homogeneous Dose Retest to Identify Inhibitors of RecA-Intein Splicing Activity. [Related pubchem assays (depositor defined):AID2097, AID2223, AID489010, AID492950]. The format is functional.

In experiment [5] the test system is H9c2. The experiment in a line: cells. The format is functional, cell-based. The following applies: Rattus norvegicus, H9c2, Myocardium.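 Further: confirmatory concentration-response retest of ultra-high-throughput screening hits for modulation of myocardial damage; cell death induced by hydrogen peroxide oxidative stress; compound pretreatment for 60 min then peroxide exposure for 2 h; potency is for protecting the cells against peroxide damage rather than for killing them.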
For experiment [6], the target named is Paired box protein Pax-8 (Homo sapiens, UniProt Q06710). The experiment in a line: PAX8 transcriptional activity inhibition in RMG-I – RMG-I cells, luciferase, cherry-pick, dose response (AID 687027).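 Further: luciferase reporter driven by Pax8 target thyroperoxidase promoter measured by SteadyGlo luminescence.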 The format is functional, cell-based.
Chain of Paired box protein Pax-8 (Q06710 whole entry): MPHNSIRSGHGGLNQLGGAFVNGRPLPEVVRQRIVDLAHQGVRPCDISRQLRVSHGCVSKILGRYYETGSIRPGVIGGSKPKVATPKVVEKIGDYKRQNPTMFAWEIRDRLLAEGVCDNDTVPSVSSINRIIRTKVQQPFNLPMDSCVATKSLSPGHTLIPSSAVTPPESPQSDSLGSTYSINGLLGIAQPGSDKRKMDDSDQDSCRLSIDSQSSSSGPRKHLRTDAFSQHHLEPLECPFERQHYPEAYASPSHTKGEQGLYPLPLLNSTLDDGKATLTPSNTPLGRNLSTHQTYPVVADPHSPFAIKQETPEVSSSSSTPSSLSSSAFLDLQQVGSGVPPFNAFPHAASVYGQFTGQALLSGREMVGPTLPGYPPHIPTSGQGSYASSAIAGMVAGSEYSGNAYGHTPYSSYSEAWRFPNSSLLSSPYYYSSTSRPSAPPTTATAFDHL

Active and inactive are the calls of the source.

From ChEMBL document CHEMBL1201862, “PubChem BioAssay data set” (2004) come the findings set out here.

Take `CCOC(=O)C(Cc1ccccc1)NC(=O)CCc1nnc2ccc(N3CCCC3)nn12` (stereo unspecified): the IC50 in experiment [1] was > 47.1 µM (inactive). Moreover, in experiment [2], the EC50 was > 53 µM (inactive).
With `Clc1ccc(-c2nnc(Sc3nc4ccccc4o3)c3ccccc23)cc1`, in experiment [3], the AC50 (commonly the concentration giving half of the maximal activity seen) was 1.58 µM (active). For the same molecule, the EC50 in experiment [4] is 0.405 µM (active).
Take `CC(OC(=O)Cn1[nH]c(=O)c2ccccc2c1=O)C(=O)Nc1ccccc1[N+](=O)[O-]` (stereo unspecified): the IC50 in experiment [5] was > 79 µM (inactive).
As to `Cc1ccc(Nc2nc(N)nc(O)c2N=O)cc1`, in experiment [5], the IC50 is 12.1 µM (active).
Take `COc1ccc(NC(=O)c2cc(-c3ccc(OC)c(OC)c3)nc3ccccc23)c(OC)c1`: the IC50 in experiment [5] is > 79 µM (inactive).
As to `Cc1ccc(CN2CC(C(=O)NCCCSc3ccccc3)CC2=O)cc1` (stereo unspecified), the IC50 in experiment [1] is > 47.1 µM (inactive). Besides, the EC50 in experiment [2] was > 53 µM (inactive).
As for `Cc1noc(C)c1COC(=O)COc1ccc2c(C)cc(=O)oc2c1`, the IC50 in experiment [5] was 13.5 µM (active).
For `CCN(CC)C(=O)CSc1ncnc2c1cnn2-c1ccccc1`, the IC50 in experiment [1] is > 47.1 µM (inactive). For the same molecule, the EC50 in experiment [2] is > 53 µM (inactive).
With `COc1ccc(OCc2cc(C(=O)NC3CCOC(C)(C)C3)no2)c2ccccc12` (stereo unspecified), the concentration at half-maximal activity (AC50) in experiment [3] is 4.88 µM (active). Besides, the EC50 in experiment [4] was 4.57 µM (active).
Take `CCn1cc(C(=O)Nc2cccc(NC(C)=O)c2)c2cc(OC)c(OC)cc2c1=O`: the IC50 in experiment [5] was 20.3 µM (active).
For the molecule `CCN=C(S)Nc1cc(OC)c(NC(=O)c2ccco2)cc1OC`, the IC50 in experiment [1] is > 47.1 µM (inactive). Besides, the EC50 in experiment [2] was > 53 µM (inactive).
In the case of `CCN(CCO)c1ncnc2c1sc1nc(C(C)C)c3c(c12)CC(C)(C)OC3`, the IC50 in experiment [5] was > 79 µM (inactive).
On to `CN(C)C(=O)/C=C\c1cn(-c2ccccc2)nc1-c1ccc2c(c1)OCCO2`, for which the IC50 in experiment [5] is > 79 µM (inactive).
As to `O=C(Nc1cccn(Cc2c(Cl)cccc2Cl)c1=O)c1c(Cl)cccc1Cl`, the IC50 in experiment [1] is 9.97 µM (active). The EC50 in experiment [2] was > 53 µM (inactive).
With `FC(F)(F)c1ccc2c(c1)N(CCCN1CCN(CCCl)CC1)c1ccccc1S2`, in experiment [3], the AC50 was 9.54 µM (active). Also, in experiment [4], the EC50 is 3.6 µM (active).
With `Cn1c2c(c(=O)n(C)c1=O)C(c1cccc([N+](=O)[O-])c1)Nc1ccccc1O2` (stereo unspecified), the IC50 in experiment [5] was > 79 µM (inactive).
As for `CCOC(=O)c1c(NC(=O)CCl)sc(C(=O)N(CC)CC)c1C`, in experiment [3], the AC50 is 2.19 µM (active). The EC50 in experiment [4] was 43.6 µM (active).
For the molecule `Cn1c(=O)n(C)c2cc(S(=O)(=O)Nc3cc(Cl)ccc3O)ccc21`, in experiment [1], the IC50 is > 47.1 µM (inactive). The EC50 in experiment [2] was > 53 µM (inactive).
Turning to `COC(=O)c1ccc(C(c2c(C)n[nH]c2O)c2c(C)n[nH]c2O)cc1`, the AC50 in experiment [3] was 3.35 µM (active). Further, the EC50 in experiment [4] is 1.94 µM (active).
`O=C(Nc1cccc(F)c1)N1CCC(c2ccccc2)CC1`: the AC50 in experiment [3] was 53.5 µM (active). The EC50 in experiment [4] was > 380 µM (inactive).
`COC(=O)c1c(NC(=O)/C=C/C(=O)O)sc(C)c1-c1ccc(C)cc1`: the AC50 in experiment [3] was 33.7 µM (active). In experiment [4], the EC50 is 11.1 µM (active).
Take `COC(=O)c1ccc(CNC(=O)COC(=O)CC23CC4CC(CC(Br)(C4)C2)C3)cc1`: the IC50 in experiment [1] was > 47.1 µM (inactive). Moreover, the EC50 in experiment [2] was > 53 µM (inactive).
Regarding `c1ccc(-c2ccc(C3CCCN3)cc2)cc1` (stereo unspecified), in experiment [3], the AC50 was > 380 µM (inactive). For the same molecule, in experiment [4], the EC50 is > 380 µM (inactive).
On to `CCN(CC(=O)Nc1cc(Cl)ccc1C)C(=O)CCc1nc(O)c2ccccc2n1`, for which the IC50 in experiment [5] is > 79 µM (inactive).
As for `NC(=O)c1nsc(C(=O)N(c2ccccc2)C(C(=O)NC2CCCC2)c2ccc3ncccc3c2)c1N` (stereo unspecified), the IC50 in experiment [5] was > 79 µM (inactive).
On to `COc1cc2c(c(OC)c1OC)-c1ccc(SC)c(=O)cc1C(NC(=O)C(F)(F)F)CC2` (stereo unspecified), for which the AC50 in experiment [6] was < 0.26 µM (active).
Regarding `COc1cc(-c2cnc3c(NC=O)cc(-c4ccsc4)cn23)cc(OC)c1OC`, in experiment [5], the IC50 was > 79 µM (inactive).
`O=C1NC(=O)c2c(Br)c(Br)c(Br)c(Br)c21`: in experiment [5], the IC50 was > 79 µM (inactive).
Regarding `CCOC(=O)C1=C(COC(=O)/C=C/c2ccc(F)cc2)NC(=O)NC1C` (stereo unspecified), the IC50 in experiment [5] was > 79 µM (inactive).
Regarding `COc1cccc(C(c2nnnn2Cc2ccccc2)N2CCC(n3c(O)nc4ccccc43)CC2)c1OC` (stereo unspecified), the AC50 in experiment [6] is 5.5 µM (active).
Turning to `Cc1ccc(N2C(=O)CC(=O)NC2=O)c(C)c1`, the IC50 in experiment [1] is > 47.1 µM (inactive). Besides, the EC50 in experiment [2] is > 53 µM (inactive).
For the molecule `CN(Cc1ccccn1)C(=O)C1CCC(=O)N(Cc2cccc(C(F)(F)F)c2)C1` (stereo unspecified), the IC50 in experiment [1] was > 47.1 µM (inactive). In addition, the EC50 in experiment [2] was > 53 µM (inactive).
Regarding `COc1ccc(-c2cc(NC=O)c3ncc(-c4ccc(C(C)=O)cc4)n3c2)cn1`, the IC50 in experiment [5] is > 79 µM (inactive).
Turning to `COc1cccc(/C=N/NC(=O)c2oc3nc(-c4ccccc4)cc(-c4ccco4)c3c2N)c1`, the IC50 in experiment [5] was > 79 µM (inactive).
